Assay results published in the NIST ThermoML archive (doi:10.1007/s10765-008-0549-z).

Details: Liquid, Hot wire method

COCCOC [1,2-dimethoxyethane]
Details	thermal conductivity [W/m/K]
245.46 K, 104.6 kPa	0.1648
245.69 K, 30045 kPa	0.1742
245.95 K, 9806.6 kPa	0.1669
245.96 K, 30103 kPa	0.1746
246.06 K, 5008.2 kPa	0.1665
246.06 K, 20070 kPa	0.1711
246.24 K, 20007 kPa	0.1706
246.49 K, 105.9 kPa	0.165
246.52 K, 5028.5 kPa	0.1666
246.69 K, 10018 kPa	0.1683
246.75 K, 10005 kPa	0.1682
246.79 K, 5010 kPa	0.1662
247.52 K, 103.3 kPa	0.1647
255.91 K, 20016 kPa	0.1675
256.02 K, 102.5 kPa	0.1606
256.02 K, 30007 kPa	0.1706
256.1 K, 10040 kPa	0.1643
256.21 K, 5070.2 kPa	0.1623
256.75 K, 30014 kPa	0.1707
256.81 K, 20002 kPa	0.1679
256.83 K, 10040 kPa	0.1642
256.9 K, 5065.5 kPa	0.1625
256.95 K, 102.5 kPa	0.161
257.48 K, 5064.5 kPa	0.1625
257.56 K, 20022 kPa	0.1674
257.58 K, 102.3 kPa	0.1607
257.62 K, 10048 kPa	0.1643
257.66 K, 30002 kPa	0.1708
266.15 K, 10003 kPa	0.1617
266.18 K, 5017.9 kPa	0.1601
266.19 K, 30009 kPa	0.1688
266.26 K, 101.3 kPa	0.158
266.26 K, 20003 kPa	0.1654
266.32 K, 10011 kPa	0.1618
266.41 K, 100.9 kPa	0.158
266.58 K, 5037.6 kPa	0.1598
266.87 K, 20013 kPa	0.165
266.95 K, 30000 kPa	0.1684
267.11 K, 30013 kPa	0.1683
267.35 K, 20003 kPa	0.1653
267.37 K, 10021 kPa	0.1617
267.5 K, 101.1 kPa	0.1578
267.84 K, 5027 kPa	0.1598
275.68 K, 10024 kPa	0.1585
275.72 K, 5003.3 kPa	0.1567
276.21 K, 20024 kPa	0.1624
276.34 K, 101.8 kPa	0.1547
276.45 K, 30012 kPa	0.1657
276.49 K, 100.9 kPa	0.1543
276.52 K, 20015 kPa	0.1623
276.94 K, 5006 kPa	0.1567
277.11 K, 30008 kPa	0.1654
277.29 K, 10005 kPa	0.1584
277.31 K, 30012 kPa	0.1653
277.53 K, 20015 kPa	0.1623
277.55 K, 5005.5 kPa	0.1565
277.95 K, 10000 kPa	0.1585
278.62 K, 101.1 kPa	0.1539
285.8 K, 10010 kPa	0.1551
286.18 K, 5012.4 kPa	0.1531
286.23 K, 101.5 kPa	0.1512
286.4 K, 30001 kPa	0.1626
286.51 K, 20013 kPa	0.159
286.67 K, 30009 kPa	0.1625
286.8 K, 20011 kPa	0.159
287.06 K, 101.3 kPa	0.1509
287.07 K, 30006 kPa	0.1621
287.28 K, 10001 kPa	0.1549
287.46 K, 5010.5 kPa	0.153
287.68 K, 20035 kPa	0.1586
288.14 K, 10002 kPa	0.1545
288.62 K, 100.9 kPa	0.1504
288.65 K, 5009.1 kPa	0.1525
294.52 K, 10026 kPa	0.1516
294.53 K, 20008 kPa	0.1566
294.55 K, 30012 kPa	0.1589
294.64 K, 10027 kPa	0.1527
294.68 K, 106.8 kPa	0.1466
294.68 K, 20036 kPa	0.1566
294.75 K, 104.2 kPa	0.1463
294.83 K, 5021.1 kPa	0.15
294.85 K, 10037 kPa	0.1514
294.89 K, 30004 kPa	0.1609
294.98 K, 5020.1 kPa	0.1495
295 K, 30018 kPa	0.1595
295.07 K, 5014 kPa	0.149
295.11 K, 20026 kPa	0.1557
295.24 K, 20010 kPa	0.1569
295.28 K, 30016 kPa	0.1598
295.32 K, 30006 kPa	0.16
295.36 K, 101.9 kPa	0.1467
295.36 K, 20006 kPa	0.1558
295.37 K, 10024 kPa	0.1515
295.38 K, 104.3 kPa	0.1474
295.83 K, 10044 kPa	0.1522
296 K, 5027.1 kPa	0.1498
314.6 K, 104.5 kPa	0.1394
314.65 K, 105.6 kPa	0.1386
314.79 K, 30008 kPa	0.1522
314.83 K, 20003 kPa	0.1491
314.84 K, 5010.3 kPa	0.1415
314.87 K, 10003 kPa	0.1443
314.9 K, 107.1 kPa	0.1402
314.95 K, 20016 kPa	0.1476
315.06 K, 10017 kPa	0.144
315.14 K, 30010 kPa	0.1529
315.17 K, 10013 kPa	0.1447
315.23 K, 5018.6 kPa	0.1424
315.26 K, 30008 kPa	0.1519
315.27 K, 105.4 kPa	0.1395
315.3 K, 20008 kPa	0.1484
315.31 K, 20001 kPa	0.1483
315.42 K, 10012 kPa	0.1445
315.46 K, 5010.3 kPa	0.1419
315.51 K, 100.6 kPa	0.1391
334.53 K, 10006 kPa	0.1361
334.58 K, 102.1 kPa	0.132
334.58 K, 5005.9 kPa	0.1342
334.65 K, 5011.8 kPa	0.1347
334.69 K, 90 kPa	0.132
334.76 K, 10004 kPa	0.1366
334.94 K, 10015 kPa	0.1373
334.98 K, 5008.9 kPa	0.1344
335.06 K, 101.6 kPa	0.1322
335.31 K, 10008 kPa	0.1374
335.39 K, 5011.5 kPa	0.1347
335.53 K, 105.6 kPa	0.1314
335.59 K, 10015 kPa	0.1366
335.96 K, 5018 kPa	0.1343
336.14 K, 105.6 kPa	0.1319

Cc1ccccc1 [toluene]
Details	thermal conductivity [W/m/K]
274.65 K	0.1387
275.4 K	0.1382
275.95 K	0.1384
276.31 K	0.138
287.33 K	0.1345
288.72 K	0.1336
289.65 K	0.1335
294.45 K	0.1318
294.69 K	0.1318
295.08 K	0.1321
295.47 K	0.1314
295.79 K	0.132
297.45 K	0.1318
298.6 K	0.1313
300.43 K	0.1303
307.66 K	0.1287
308.62 K	0.1283
310.22 K	0.1274
314.69 K	0.1261
314.74 K	0.1264
315.55 K	0.1253
315.85 K	0.1254
316.7 K	0.1251
317.94 K	0.1251
319.32 K	0.1245
319.96 K	0.1245
327.65 K	0.1225
329.5 K	0.1214
330.77 K	0.1209
338.39 K	0.1188
339.77 K	0.1181
340.62 K	0.1181
355.63 K	0.114
355.95 K	0.114
357.02 K	0.1137
375.26 K	0.1086
375.71 K	0.1087
